Source: patent US4528294A, “Benzoyl-phenyl-piperidine derivatives” (Societe de Recherches Industrielle S.O.R.I., priority 1981, dated 1985)

What was measured:
[1] = system: lymphocytes of the mouse; assay: Stimulation in vitro of mouse lymphocytes (tritium-marked thymidine incorporation); type: cell-based, mouse (DBA/2); details: at the optimal concentration; thymidine incorporation in 24 hours with respect to control culture; PHA and PWM
Procedure: Lymphocytes (5×10^5 cells per measurement) extracted from the spleen of inbred mice (DBA/2) are incubated for 36 hours at 37° C. in an atmosphere of oxygen with 5% of CO2 in a culture medium (RPMI 1640) containing:
10% (by weight) of foetal calf serum (100 μl per measurement)
10 μl of a solution of lectins in the proportion of 5 μg/ml of phytohemaglutinine (PHA) and 40 μg/ml of Pokeweed Mitogen (PWM), and
the substance to be tested.
The activity is evaluated by measuring the radio-activity obtained by incorporation in 24 hours of 2 μCi (i.e. 7.4×10^4 becquerels) of tritium-marked thymidine, with respect to a control culture.
The results obtained are grouped together in Table II hereinbelow which gives the optimum concentration of the products in μg/ml, and where symbols +, ++ and +++ signify: […]

[2] = system: mouse; assay: Toxicity (LD-50 and LD-0), i.p. route in the mouse; type: in vivo
Procedure: (§1) The toxicity (LD-50 and LD-0) was determined by the i.p. route in the mouse according to the technique of S. T. Litchfield described in J. Pharm. Exp. Ther. 96, 99 (1949).

[3] = system: delayed hypersensitivity; assay: Delayed hypersensitivity test; type: in vivo; details: single dose of 5 mg/kg per os, mouse, three days before sensitization
From the text: Furthermore, the product of Example 2 (Code No. 442) was studied according to the delayed hypersensitivity test following the modus operandi described by P. H. Lagrange et al., J. Exp. Med. 139, 1529-1539 (1974).

[4] = Toxicity (LD-50 and LD-0), i.p. route in the mouse; type: in vivo; details: in vivo, ip
Procedure: as §1

Structure (SMILES) | Stimulation [1] | LD-0 [2] | reduction of the delayed hypersensitivity [3] | LD50 [4]
CC1CCN(c2ccc(N)cc2C(=O)c2ccccc2Cl)CC1 [Example 8] | + (stimulation of 0 to 50%) | > 800 mg/kg |  | 
CC1CCN(c2ccc(N)cc2C(=O)c2ccc(F)cc2)CC1 [Example 17] | + (stimulation of 0 to 50%) | > 800 mg/kg |  | 
CC1CCN(c2ccc(N(C)C)cc2C(=O)c2ccc(Cl)cc2)CC1 [Example 5] | + (stimulation of 0 to 50%) | > 800 mg/kg |  | 
CCOC(=O)Nc1ccc(N2CCC(C)CC2)c(C(=O)c2ccc(Cl)cc2)c1 [Example 3, [2-(4-methyl-1-piperidinyl)-5-(N-ethoxycarbonyl-amino)-phenyl]-(4-chlorophenyl)-methanone] | ++ (stimulation of 50% to 100%) | > 800 mg/kg |  | 
CC1CCN(c2ccc(N)cc2C(=O)c2ccc(Cl)cc2)CC1 [Example 2, [2-(4-methyl-1-piperidinyl)-5-aminophenyl]-(4-chlorophenyl)-methanone] | +++ (stimulation greater than 100%) |  | reduction by half | 1300 mg/kg
Cc1ccc(C(=O)c2cc(N)ccc2N2CCC(C)CC2)c(C)c1 [Example 16] | ++ (stimulation of 50% to 100%) |  |  | 750 mg/kg
CC1CCCN(c2ccc(N)cc2C(=O)c2ccc(Cl)cc2)C1 (centres unmarked) [Example 14] | ++ (stimulation of 50% to 100%) |  |  | 
CC1CCN(c2ccccc2C(=O)c2ccc(Cl)cc2)CC1 [Example 21] |  |  |  | 1800 mg/kg
COc1ccc(C(=O)c2cc(N)ccc2N2CCC(C)CC2)cc1OC [Example 9] | + (stimulation of 0 to 50%) | > 800 mg/kg |  | 
CC1CCN(c2ccc([N+](=O)[O-])cc2C(=O)c2ccc(Cl)cc2)CC1 [Example 1, [2-(4-methyl-1-piperidinyl)-5-nitrophenyl]-(4-chlorophenyl)-methanone] | ++ (stimulation of 50% to 100%) | > 800 mg/kg |  | 
Nc1ccc(N2CCCCC2)c(C(=O)c2ccc(Cl)cc2)c1 [Example 12] | + (stimulation of 0 to 50%) | > 800 mg/kg |  | 
CC(C)(C)C1CCN(c2ccc(N)cc2C(=O)c2ccc(Cl)cc2)CC1 [Example 31] |  | > 800 mg/kg |  | 
Cc1ccc(C(=O)c2cc(N)ccc2N2CCC(C)CC2)cc1 [Example 15] | ++ (stimulation of 50% to 100%) | > 800 mg/kg |  | 
COc1ccc(C(=O)c2ccccc2N2CCC(C)CC2)cc1 [Example 24] | + (stimulation of 0 to 50%) | > 800 mg/kg |  | 
CC1CCN(c2ccc(Cl)cc2C(=O)c2ccc(Cl)cc2)CC1 [Example 22] | + (stimulation of 0 to 50%) |  |  | 1800 mg/kg
CC1CCN(c2ccccc2C(=O)c2ccccc2)CC1 [Example 4, [2-(4-methyl-1-piperidinyl)-phenyl]-phenyl-methanone] |  | > 800 mg/kg |  | 
CNc1ccc(N2CCC(C)CC2)c(C(=O)c2ccc(Cl)cc2)c1 [Example 6, [2-(4-methyl-1-piperidinyl)-5-methylamino-phenyl]-(4-chlorophenyl)methanone] | + (stimulation of 0 to 50%) | > 800 mg/kg |  | 
CC1CCN(c2ccc(N)cc2C(=O)c2ccccc2)CC1 [Example 27, [2-(4-methyl-1-piperidinyl)-5-aminophenyl]-phenyl-methanone] | + (stimulation of 0 to 50%) | > 800 mg/kg |  | 
CC1CC(C)CN(c2ccc(N)cc2C(=O)c2ccc(Cl)cc2)C1 (centres unmarked) [Example 19] | ++ (stimulation of 50% to 100%) | > 800 mg/kg |  | 
CC1CCN(c2ccc(N)cc2C(=O)c2ccc(Cl)c(Cl)c2)CC1 [Example 28] | ++ (stimulation of 50% to 100%) | > 800 mg/kg |  | 
CC1CCN(c2ccc(N)cc2C(=O)c2ccc(Br)cc2)CC1 [Example 30] |  | > 800 mg/kg |  | 
CC1CCCCN1c1ccc(N)cc1C(=O)c1ccc(Cl)cc1 (centres unmarked) [Example 20] | +++ (stimulation greater than 100%) | > 800 mg/kg |  | 
COc1ccc(C(=O)c2cc(N)ccc2N2CCC(C)CC2)cc1 [Example 23] | ++ (stimulation of 50% to 100%) | > 800 mg/kg |  | 
Cc1cc(C(=O)c2cc(N)ccc2N2CCC(C)CC2)cc(C)c1C [Example 29] | + (stimulation of 0 to 50%) | > 800 mg/kg |  | 
